{"source": "patent US20070259439A1", "about": "“Determination of antibiotic concentration in bone” (Wyeth, priority 2006, published 2007)", "key": {"[1]": {"test": "Stability of tigecycline in incurred rat bone and in extracted rat bone sample", "format": "physicochemical", "protocol": "Stability tests for tigecycline in IncRB reference QC samples or incHB QC samples were conducted in 4 cycles of freeze/thaw for IncRB QC and (3 cycles for IncHB QC of −70° C./22° C.) and in standard bench top (22° C.) stability (4 hours for rat bone and 6 hours for human bone) tests. These tests occurred during sequential extraction from run 1 through run 3. Bench top stability of IncRB reference QC samples (4 hours at room temperature) and incurred human bone sample (6 hours at room temperature), and extracted tigecycline from the IncRB and incurred human reference QC samples in the autosampler at 4° C. were evaluated during the method validation. Autosampler stability of tigecycline in IncRB Group B sample (^14C) was employed as the sample pool because aliquots from IncRB Group A were exhausted from prior testing. Results were plotted as the peak area ratio against time. The 54-hour autosampler stability of incurred human bone was performed by comparing extracted samples injected immediate after extraction (baseline) with the same set of extracted samples re-injected after 54 hours of storage at 4° C., regressed with a standard curve injected immediately after extraction (baseline)."}, "[2]": {"test": "Antibiotic bone assay (LC/MS/MS): tigecycline concentration in incurred human bone", "format": "in vivo", "protocol": "Incurred Human Bone: Incurred human bone samples were from Wyeth 3074A1-117-US clinical study. Human bone samples were from the collection of patients who received Tygacil treatment and had bone replacement surgery in 2004. All bone samples were stored at −70° C.\nPreparation of incurred human bone sample (incHB) QC sample: Collected large pieces of bone (5-50 g per piece) were immersed in liquid nitrogen in a double thickness 7″×8″ Bitran S series specimen bag and the bone sample was broken into 10 mm or smaller pieces using a steel hammer on a high density polyethylene dissecting borad (11″×13″). The bone pieces were then broken into smaller (approximately 5 mm or less) pieces using a large ceramic mortar and pestle. […]\nCalibrators, quality control (QC) samples, and IncRB QC sample (an incurred rat bone sample used as a QC and evaluated multiple times) were prepared as described below. Due to high concentration of oxidant(s) in human bone (incurred and control bone), which can destroy tigecycline before it can be detected after extraction, preparation of calibrators, QCs and incurred samples for human bone require addition of 120 μL of 100 mM L-ascorbic acid solution to the samples (0.1 g) and incubation for 5 minutes at room temperature before adding extraction solvent. […]"}, "[3]": {"test_system": "Bacillus cereus ATCC 11778", "test": "Verification of tigecycline microbiological activity (agar well diffusion bioassay)", "format": "cell-based", "settings": "for Zone Size, Sample: n = 3", "protocol": "Standard Curve Preparation: A stock solution of tigecycline standard powder, at a concentration of 1000 μg/ml, was prepared in normal saline. Dilutions were prepared in normal saline at a concentration range of 4, 2, 1 and 0.5, 0.25, and 0.125 μg/ml for the preparation of the standard curve. The internal standard (1 μg/ml) was also made from stock solution.\nPreparation of Inoculum: An overnight trypticase soy agar blood plate culture (incubated at 30° C.) of Bacillus cereus ATCC 11778 was adjusted to a McFarland 0.5 standard in saline. This suspension yields a bacterial density of approximately 10^8 colony forming units (CFU)/ml.\nPreparation of Bioassay Agar Plates: The agar medium was prepared by adding nutrient broth (8 g) and agarose (11 g or […]) per liter of distilled water. After autoclaving at 121° C. for 15 minutes, the medium was allowed to equilibrate to a temperature of 48-50° C. for approximately 1 hour in a water bath. The adjusted B. cereus culture was used to inoculate the cooled agar to a final concentration of 1% (1 ml/100 ml). A volume of 100 ml is added to a Nunc bioassay dish and the agar allowed to solidify at room temperature on a level surface. After cooling, wells were cut into the surface of the agar assay plate using a vacuum well cutting device. The standard curve and unknown samples were placed into the wells (50 μl) in a predetermined array with three wells each per concentration. An internal standard was also tested in triplicate. The pulverized bone samples (and standards for that experiment) were overlaid with 1.1% agarose (50 μl) to maintain contact with the seeded agar. The plates were pre-diffused at 4° C. for two hours, then incubated at 30° C. for 18-24 hours.\nDetermination of antibiotic concentrations in IncRB samples: The diameters of the zones of inhibition for standards and samples were measured using electronic calipers. The concentrations of the standard curve were then plotted on a semilogarithmic scale vs their corresponding zone diameters to give a standard regression curve. The concentrations of the samples and internal standard were determined by comparing the mean zone size of the samples to the zone sizes of the standard curve and their corresponding concentration. A bioassay data analysis program was used to perform the calculations and plots."}, "[4]": {"settings": "Bone Extract (non-neutralized) (pH 1.7), IncRB Group B"}}, "note": "Values joined by “and” are separate entries in the source; they are usually repeats but may differ in a detail not shown here. Identical values can stand only once."}
{"smiles": "CN(C)c1cc(NC(=O)CNC(C)(C)C)c(O)c2c1C[C@H]1C[C@H]3[C@H](N(C)C)C(O)=C(C(N)=O)C(=O)[C@@]3(O)C(O)=C1C2=O", "note": "[tigecycline, Tigecycline]", "values": [{"measurement": "Freeze/thaw stability in incurred rat bone", "setting": "[1]; after 4 cycles of freeze/thaw (−70° C./22° C.)", "result": "stable"}, {"measurement": "Bench top stability in incurred rat bone", "setting": "[1]; after 4 hours at room temperature", "result": "stable"}, {"measurement": "Stability of extracted tigecycline from IncRB samples", "setting": "[1]; extracted sample at 4° C., no stabilizing agent", "result": 8.5, "unit": "h"}, {"measurement": "Storage stability in incurred rat bone", "setting": "[1]; stored at −70° C.", "result": "at least 5 months"}, {"measurement": "Re-injection stability of extracted tigecycline", "setting": "[1]; within 5 hours, no stabilizing agent", "result": 5, "unit": "re-injections"}, {"measurement": "Tigecycline concentration in incurred human bone samples", "setting": "[2]; 24 individual samples, study 3074A1-117-US, stored approximately twenty-one months at −70° C.", "result": "492 ng/g (2×) and 550 ng/g and 665 ng/g and 431 ng/g and 628 ng/g and 269 ng/g and 290 ng/g and 335 ng/g and 238 ng/g and 240 ng/g and 433 ng/g and 560 ng/g and 362 ng/g and 491 ng/g and 595 ng/g and 258 ng/g and 323 ng/g and 421 ng/g and 411 ng/g and 626 ng/g and 281 ng/g and 439 ng/g and 794 ng/g"}, {"measurement": "Inc HB QC sample concentration (incurred human bone)", "setting": "[2]; patients who received Tygacil, nominal value = mean of 3-day global inter-day validation (n = 15)", "result": "257 ng/g and 257^a ng/g"}, {"measurement": "Zone Size, Sample minus diluent", "setting": "[3]; [4]", "result": 11.8, "unit": "mm"}, {"measurement": "Zone Size, Sample", "setting": "[3]; [4]", "result": 33.3, "unit": "mm"}, {"measurement": "Zone Size, Sample minus diluent", "setting": "[3]; Neutralized Bone Extract A (pH 7.0)", "result": 0, "unit": "mm"}, {"measurement": "Zone Size, Sample", "setting": "[3]; Neutralized Bone Extract A (pH 7.0), neutralization prior to methanol evaporation", "result": 0, "unit": "mm"}, {"measurement": "Zone Size, Sample minus diluent", "setting": "[3]; Neutralized Bone Extract B (pH 7.0)", "result": 0, "unit": "mm"}, {"measurement": "Zone Size, Sample", "setting": "[3]; Neutralized Bone Extract B (pH 7.0), neutralization after methanol evaporation", "result": 0, "unit": "mm"}]}
